Assay results as given in patent publication US7521528B2, “Conformationally constrained parathyroid hormone (PTH) analogs with lactam bridges” (The General Hospital Corporation, priority 2003, dated 2009).
Non-standard residues stand in square brackets, D forms with d. Residues, ends and D or L forms follow the SMILES beside them. hArg = N=C(N)NCCCC[C@H](N)C(=O)O

Assays:
[1] = target: T1, recombinant full-length P1R (Homo sapiens, UniProt Q03431); test: cAMP stimulation in HKRK-B28 cells; assay type: cell-based; conditions: for Emax at 1 µM: at 1×10^−6 M, percent of maximum response of PTH(1-34)
T1 construct: expressed in transfected cells
T1 sequence (Q03431 27-593): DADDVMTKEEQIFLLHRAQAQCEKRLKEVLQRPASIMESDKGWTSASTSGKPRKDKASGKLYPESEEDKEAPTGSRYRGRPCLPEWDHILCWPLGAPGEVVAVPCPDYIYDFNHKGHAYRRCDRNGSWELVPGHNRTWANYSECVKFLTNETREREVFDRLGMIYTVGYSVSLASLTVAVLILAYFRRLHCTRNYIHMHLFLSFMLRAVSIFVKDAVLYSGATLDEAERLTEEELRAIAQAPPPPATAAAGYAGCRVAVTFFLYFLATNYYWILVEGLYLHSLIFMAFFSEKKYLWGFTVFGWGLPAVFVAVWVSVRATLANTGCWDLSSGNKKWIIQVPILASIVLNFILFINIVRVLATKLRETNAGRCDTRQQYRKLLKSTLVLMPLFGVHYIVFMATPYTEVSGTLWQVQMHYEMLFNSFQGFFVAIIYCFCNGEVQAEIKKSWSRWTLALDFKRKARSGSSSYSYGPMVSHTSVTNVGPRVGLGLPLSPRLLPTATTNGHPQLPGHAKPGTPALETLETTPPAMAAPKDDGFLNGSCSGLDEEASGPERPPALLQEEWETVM
Method: (§1) Cell Culture. The cell line HKRK-B28 (Takasu, H., et al., J. Bone Miner. Res. 14:11-20 (1999)) was derived from the porcine kidney cell line, LLC-PK1 by stable transfection with plasmid DNA encoding the full-length P1R and expresses ˜280,000 receptors per cell. These cells, as well as COS-7 cells and SaOS-2-B10 cells, were cultured at […] in T-75 flasks ([…]) in Dulbecco's modified Eagle's medium (DMEM) supplemented with fetal bovine serum (10%), penicillin G (20 units/ml), streptomycin sulfate (20 μg/ml) and amphotericin B (0.05 μg/ml) in a humidified atmosphere containing 5% CO2. Stock solutions of EGTA/trypsin and antibiotics were from GIBCO; fetal bovine serum was from Hyclone Laboratories (Logan, Utah). COS-7 cells sub-cultured in 24-well plates were transfected with plasmid DNA (200 ng per well) encoding the wild-type human P1R or truncated human P1R deleted for residues (24-181) (Shimizu, M., et al., J. Biol. Chem. 275:21836-21843 (2000)) that was purified by cesium chloride/ethidium bromide density gradient centrifugation, and FuGENE 6 transfection reagent (Roche Indianapolis Ind.) according to the manufacturer's recommended procedure. All cells, in 24-well plates, were treated with fresh media and shifted to 33° C. for 12 to 24 h prior to assay.
(§2) cAMP Stimulation. Stimulation of cells with peptide analogs was performed in 24-well plates. Cells were rinsed with 0.5 mL of binding buffer (50 mM Tris-HCl, 100 mM NaCl, 5 mM KCl, 2 mM CaCl2, 5% heat-inactivated horse serum, 0.5% fetal bovine serum, adjusted to pH 7.5 with HCl) and treated with 200 μL of cAMP assay buffer (Delbecco's modified Eagle's medium containing 2 mM 3-isobutyl-1-methylxanthine, 1 mg/mL bovine serum albumin, 35 mM Hepes-NaOH, pH 7.4) and 100 μL of binding buffer containing varying amounts of peptide analog (final volume=300 μL). The medium was removed after incubation for 30 to 60 minutes at room temperature, and the cells were frozen on dry ice, lysed with 0.5 mL 50 mM HCl, and refrozen ([…]). The cAMP content of the diluted lysate was determined by radioimmunoassay. The EC50 response values were calculated using nonlinear regression (see below).
(§3) Data Calculation. Calculations were performed using Microsoft® Excel. Nonlinear regression analyses of binding and cAMP dose-response data were performed using the four-parameter equation: yp=Min+[(Max−Min)/(1+(IC50/x)^slope)]. The Excel Solver function was utilized for parameter optimization, as described previously (Carter, P. H., et al., Endocrinology 140: 4972-4981 (1999); Bowen, W. P., and Jerman, J. C., Trends in Pharmacol. Sci. 16: 413-417 (1995)). Differences between paired data sets were statistically evaluated using a one-tailed Student's t-test, assuming unequal variances for the two sets.
The effects of installing a direct covalent linkage between the side chains of the residues at positions 6 and 10 on PTH analog function were also assessed. To do this, paired Glu^6/Lys^10 or Lys^6/Glu^10 substitutions were introduced into an otherwise non-constrained PTH(1-14) analog scaffold AlaValAlaGluIleGln LeuMetHisGlnHarAlaLysTrp-amide (SEQ. ID. NO. 11) and formed an amide bond between the carboxylate side chain group of the introduced glutamate residue and the amino side chain group of the introduced lysine residue. For controls, a portion of each Glu/Lys- or Lys/Glu-substituted PTH(1-14) analog was preserved in the non-bridged form. The four peptides: [Glu^6, Lys^10]PTH(1-14)(linear)(SEQ. ID. NO. 24), [(Glu^6,Lys^10)lac.]PTH(1-14) cyclized via a 6-10 lactam bridge)(SEQ. ID. NO. 3), [Lys^6, Glu^10]PTH(1-14)(SEQ. ID. NO. 25), and [(Lys^6, Glu^10)lac.]PTH(1-14)(SEQ. ID. NO. 26) were first compared at a single dose of 10 μM for the capacity to stimulate cAMP formulation in HKRK-B28 cells, an LLC-PK1-derived cell line that expresses the recombinant full-length P1R at a moderate level (˜280,000 receptors per cell). […]

P1R [2] = target: T2, P1R (Homo sapiens, UniProt Q03431); test: cAMP stimulation in HKRK-B7 cells; assay type: cell-based; conditions: for Emax: cAMP response, Table 1
T2 construct: expressed in transfected cells
T2 sequence (Q03431 27-593): T1 sequence (Q03431 27-593)
Method: as §2, §3
The functional effects of substitutions at positions 6 and 10 in PTH using a PTH(1-11) analog AlaValAlaGluIleGlnLeuMetHisGlnArg-amide as the scaffold peptide (SEQ. ID. NO. 8). The peptides were analyzed for the capacity to stimulate cAMP formation in HKRK-B7 cells, an LLC-PK1-derived cell line that expresses via stable transfection the recombinant human P1R at high density (˜950,000 receptors per cell).

P1R-DelNt = target: T3, P1R-DelNt (Homo sapiens, UniProt Q03431); test: cAMP stimulation in LdelNt-2 cells; assay type: cell-based; conditions: for Emax: percent of maximum response of PTH(1-11)
T3 construct: expressed in transfected cells
T3 sequence (Q03431 with tags, fused parts or gaps limits assumed): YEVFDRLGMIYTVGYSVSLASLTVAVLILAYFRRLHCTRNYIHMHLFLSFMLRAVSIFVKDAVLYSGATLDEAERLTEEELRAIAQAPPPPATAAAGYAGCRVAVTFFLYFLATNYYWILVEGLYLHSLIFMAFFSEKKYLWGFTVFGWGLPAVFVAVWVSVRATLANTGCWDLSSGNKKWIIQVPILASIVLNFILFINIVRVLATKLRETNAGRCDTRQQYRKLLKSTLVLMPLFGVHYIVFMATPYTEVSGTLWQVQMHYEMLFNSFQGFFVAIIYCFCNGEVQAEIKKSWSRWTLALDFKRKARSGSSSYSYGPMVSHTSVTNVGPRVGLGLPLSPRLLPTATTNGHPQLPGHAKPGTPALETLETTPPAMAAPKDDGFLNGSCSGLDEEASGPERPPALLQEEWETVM
Method: as §2, §3
The two-domain hypothesis of the PTH-P1R interaction mechanism predicts that the effects of the substitutions at positions 6 and 10 observed with the above PTH(1-11) analogs involve interactions (direct or indirect) that occur within the juxtamembrane region of the receptor. To test this hypothesis, P1R-DelNt was utilized. P1R-DeNt is a P1R construct that is deleted for most of the N domain yet which retains nearly full capacity to be expressed on the cell surface and to stimulate cAMP formation in response to N-terminal PTH analogs, and an LLC-PK1-derived cell line was herein established, LdelNt-2, which stably expresses P1R-DelNt.

wild-type human P1R = target: T4, wild-type human P1R (Homo sapiens, UniProt Q03431); test: cAMP stimulation in COS-7 cells transiently transfected with P1R-WT; assay type: cell-based; conditions: at 1×10^−6M, percent of maximum response of PTH(1-34) on P1R-WT
T4 construct: expressed in transfected cells; host or cells: COS-7 (transient transfection, FuGENE 6)
T4 sequence (Q03431 27-593): T1 sequence (Q03431 27-593)
Method: as §1
cAMP Stimulation. Stimulation of cells with peptide analogs was performed in 24-well plates. […] The cAMP content of the diluted lysate was determined by radioimmunoassay. The EC50 response values were calculated using nonlinear regression (see below).
Data Calculation. […] Differences between paired data sets were statistically evaluated using a one-tailed Student's t-test, assuming unequal variances for the two sets.
(§4) The peptide PTH(1-34)([Tyr^34]hPTH(1-34)NH2)(SEQ. ID. NO. 11) and analogs containing the indicated residues at positions 6 and/or 10 were evaluated for the capacity to stimulate cAMP accumulation in COS-7 cells transiently transfected with either the wild-type P1R(P1R-WT) or P1R-DelNt. […]

[3] = target: T5, P1R-DelNt (truncated human P1R deleted for residues 24-181) (Homo sapiens, UniProt Q03431); test: cAMP stimulation in COS-7 cells transiently transfected with P1R-DelNt; assay type: cell-based; conditions: for Emax: COS-7, at 1×10^−5, percent of maximum response of PTH(1-34) on P1R-WT
T5 construct: expressed in transfected cells; host or cells: COS-7 (transient transfection, FuGENE 6)
T5 sequence (Q03431 with tags, fused parts or gaps limits assumed): T3 sequence (Q03431 with tags, fused parts or gaps limits assumed)
Method: as §1, §2
Data Calculation. Calculations were performed using Microsoft® Excel. […] Differences between paired data sets were statistically evaluated using a one-tailed Student's t-test, assuming unequal variances for the two sets.
as §4

P1R [4] = target: T2, P1R; conditions: cAMP-signaling, literature (Luck et al. 1999); cited from earlier work

Emax (P1R [2]) [%] | Emax (P1R-DelNt) [%] | Emax at 1 µM (wild-type human P1R) [%] | Emax [3] [%] | Emax at 1 µM [1] [%] | Compound | other results
 |  |  |  |  | CC[C@H](C)[C@H](NC(=O)[C@H](CCC(=O)O)NC(=O)[C@H](C)NC(=O)[C@@H](NC(=O)[C@H](C)N)C(C)C)C(=O)N[C@@H](CCCCN)C(=O)N[C@@H](CC(C)C)C(=O)N[C@@H](CCSC)C(=O)N[C@@H](Cc1c[nH]cn1)C(=O)N[C@@H](CCC(=O)O)C(=O)N[C@@H](CCCCNC(=N)N)C(=O)N[C@@H](C)C(=O)N[C@@H](CCCCN)C(=O)N[C@@H](Cc1c[nH]c2ccccc12)C(N)=O [[Lys^6, Glu^10]PTH(1-14)] (H-AVAEIKLMHE[hArg]AKW-NH2) | Emax ([1]; percent of maximum response of PTH(1-14), Table 3): 37 ± 5%
41 ± 2 | 42 ± 5 |  |  |  | H-AVAEIALMHAR-NH2 [[Ala^6, Ala^10]PTH(1-11)] | potency relative to [Ala^6]PTH(1-11) (P1R [2]): two-fold greater; potency relative to [Ala^6]PTH(1-11) (P1R-DelNt): two-fold lower
26 ± 2 | 14 ± 2 |  |  |  | H-AVAEIALMHQR-NH2 [[Ala^6]PTH(1-11)] | EC50/potency difference versus parent PTH(1-11) (P1R-DelNt): ~3 fold
88 ± 5 | 79 ± 5 |  |  |  | H-AVAEIQLMHAR-NH2 [[Ala^10]PTH(1-11)] | 
100 ± 3 | 100 ± 2 |  |  |  | H-AVAEIQLMHQR-NH2 [PTH(1-11)(SEQ. ID. NO. 8), AlaValAlaGluIleGlnLeuMetHisGlnArg-amide] | fold increase in cAMP formation (P1R [2]): 75 fold; EC50/potency difference versus parent PTH(1-11) (P1R-DelNt): 22 fold; fold increase in cAMP formation/accumulation (P1R-DelNt): 55 fold; maximum cAMP response observed (P1R-DelNt; n=3): 113±4 pM of cAMP per well
 |  | 121 ± 7 | 44 ± 2 | 107 ± 8 | H-SVSEIALMHALGKHLNSMERVEWLRKKLQDVHNY-NH2 [[Ala^6,10]PTH(1-34)] | cAMP-signaling potency (in words) ([3]; COS-7 cells expressing P1R-DelNt): as potent as PTH(1-34)
 |  | 104 ± 2 | 4.5 ± 0.9 | 105 ± 10 | H-SVSEIALMHNLGKHLNSMERVEWLRKKLQDVHNY-NH2 [[Ala^6]PTH(1-34)] | 
 |  | 96 ± 4 | 46 ± 2 | 106 ± 7 | H-SVSEIQLMHALGKHLNSMERVEWLRKKLQDVHNY-NH2 [[Ala^10]PTH(1-34)] | 
 |  |  |  |  | PTH(1-34): first 34 amino acids of PTH, literature data | EC50 (P1R [4]): ~2 nM
